# Data as given in ChEMBL document CHEMBL1141743, “Malyngamides M and N from the Hawaiian Red Alga Gracilaria coronopifolia” (J Nat Prod, 1998).
# Assay: Cytotoxicity against mouse NB cells
# Format: functional, cell-based
row,SMILES,IC50 [µM]
1,CCCCCCC[C@@H](C/C=C/CCC(=O)N(C)C/C(=C/Cl)c1cccc(C)c1O)OC [MALYNGAMIDE M],> 20
2,CCCCCCC[C@@H](C/C=C/CCC(=O)N(C)C/C(=C/Cl)[C@]12O[C@H]1CC=C(C)C2=O)OC [MALYNGAMIDE N],12
3,CCCCCCC[C@@H](C/C=C/CCC(=O)N(C)C/C(=C/Cl)[C@]12O[C@H]1C[C@@H](OC(C)=O)[C@@H](C)C2=O)OC,12
